# Reference: ChEMBL document CHEMBL3991601, “The target landscape of clinical kinase drugs” (Science, 2017)
# Active and inactive are the calls of the source. Rule as the data show it, for most assays here: actives have a measured Kd and inactives only a lower limit.
# How the values were obtained:
# [1] = molecular target: Casein kinase I isoform delta (Homo sapiens, UniProt P48730)
# [2] = molecular target: Glycogen synthase kinase-3 alpha (Homo sapiens, UniProt P49840)
# [3] = molecular target: Ras-related protein Rab-6A (Homo sapiens, UniProt P20340)
# [4] = molecular target: DNA topoisomerase 2-beta (Homo sapiens, UniProt Q02880)
# [5] = molecular target: Cyclin-dependent kinase 4 (Homo sapiens, UniProt P11802)
# [6] = molecular target: T1, MAP kinase-activated protein kinase 5 (Homo sapiens, UniProt Q8IW41)
# T1 sequence (Q8IW41 whole entry): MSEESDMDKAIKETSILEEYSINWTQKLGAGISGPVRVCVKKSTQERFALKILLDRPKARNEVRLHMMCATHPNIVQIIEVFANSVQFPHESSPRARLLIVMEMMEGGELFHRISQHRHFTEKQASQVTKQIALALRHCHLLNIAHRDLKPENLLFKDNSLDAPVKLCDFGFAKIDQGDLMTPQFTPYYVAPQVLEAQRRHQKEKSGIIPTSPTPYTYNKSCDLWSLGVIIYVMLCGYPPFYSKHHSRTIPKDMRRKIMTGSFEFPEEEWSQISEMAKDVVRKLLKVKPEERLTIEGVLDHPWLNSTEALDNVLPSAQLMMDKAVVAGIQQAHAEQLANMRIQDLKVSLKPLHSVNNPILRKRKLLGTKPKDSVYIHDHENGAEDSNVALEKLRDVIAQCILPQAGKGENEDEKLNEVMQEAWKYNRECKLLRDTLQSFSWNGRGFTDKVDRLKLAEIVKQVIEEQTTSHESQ
# [7] = molecular target: T2, Ephrin type-B receptor 4 (Homo sapiens, UniProt P54760)
# T2 sequence (P54760 whole entry): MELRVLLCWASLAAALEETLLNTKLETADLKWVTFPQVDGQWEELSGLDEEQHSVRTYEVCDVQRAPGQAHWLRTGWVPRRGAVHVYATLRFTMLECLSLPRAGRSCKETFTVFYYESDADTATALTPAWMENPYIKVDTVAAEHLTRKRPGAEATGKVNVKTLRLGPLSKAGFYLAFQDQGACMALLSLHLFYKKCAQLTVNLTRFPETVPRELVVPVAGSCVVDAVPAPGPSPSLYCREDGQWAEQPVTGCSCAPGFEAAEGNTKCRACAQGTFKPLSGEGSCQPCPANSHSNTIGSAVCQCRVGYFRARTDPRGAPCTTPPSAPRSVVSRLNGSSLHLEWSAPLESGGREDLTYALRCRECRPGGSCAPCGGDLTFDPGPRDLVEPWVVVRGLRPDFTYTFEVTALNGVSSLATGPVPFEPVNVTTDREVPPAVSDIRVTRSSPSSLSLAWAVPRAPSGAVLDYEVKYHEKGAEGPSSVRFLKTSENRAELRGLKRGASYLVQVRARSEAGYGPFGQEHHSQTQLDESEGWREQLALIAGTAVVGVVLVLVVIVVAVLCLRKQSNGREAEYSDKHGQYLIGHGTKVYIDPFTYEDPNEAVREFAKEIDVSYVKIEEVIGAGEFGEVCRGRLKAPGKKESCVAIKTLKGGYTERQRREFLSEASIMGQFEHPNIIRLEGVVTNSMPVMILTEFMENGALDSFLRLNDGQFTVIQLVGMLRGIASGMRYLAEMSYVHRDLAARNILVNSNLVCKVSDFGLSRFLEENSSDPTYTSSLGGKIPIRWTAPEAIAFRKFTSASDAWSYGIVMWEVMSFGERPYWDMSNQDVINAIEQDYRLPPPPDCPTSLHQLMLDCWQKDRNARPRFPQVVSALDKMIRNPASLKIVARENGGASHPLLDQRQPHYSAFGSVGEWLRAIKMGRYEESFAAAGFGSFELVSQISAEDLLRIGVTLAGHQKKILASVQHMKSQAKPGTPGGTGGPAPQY
# [8] = molecular target: T3, Acyl-CoA dehydrogenase family member 10 (Homo sapiens, UniProt Q6JQN1)
# T3 sequence (Q6JQN1 whole entry): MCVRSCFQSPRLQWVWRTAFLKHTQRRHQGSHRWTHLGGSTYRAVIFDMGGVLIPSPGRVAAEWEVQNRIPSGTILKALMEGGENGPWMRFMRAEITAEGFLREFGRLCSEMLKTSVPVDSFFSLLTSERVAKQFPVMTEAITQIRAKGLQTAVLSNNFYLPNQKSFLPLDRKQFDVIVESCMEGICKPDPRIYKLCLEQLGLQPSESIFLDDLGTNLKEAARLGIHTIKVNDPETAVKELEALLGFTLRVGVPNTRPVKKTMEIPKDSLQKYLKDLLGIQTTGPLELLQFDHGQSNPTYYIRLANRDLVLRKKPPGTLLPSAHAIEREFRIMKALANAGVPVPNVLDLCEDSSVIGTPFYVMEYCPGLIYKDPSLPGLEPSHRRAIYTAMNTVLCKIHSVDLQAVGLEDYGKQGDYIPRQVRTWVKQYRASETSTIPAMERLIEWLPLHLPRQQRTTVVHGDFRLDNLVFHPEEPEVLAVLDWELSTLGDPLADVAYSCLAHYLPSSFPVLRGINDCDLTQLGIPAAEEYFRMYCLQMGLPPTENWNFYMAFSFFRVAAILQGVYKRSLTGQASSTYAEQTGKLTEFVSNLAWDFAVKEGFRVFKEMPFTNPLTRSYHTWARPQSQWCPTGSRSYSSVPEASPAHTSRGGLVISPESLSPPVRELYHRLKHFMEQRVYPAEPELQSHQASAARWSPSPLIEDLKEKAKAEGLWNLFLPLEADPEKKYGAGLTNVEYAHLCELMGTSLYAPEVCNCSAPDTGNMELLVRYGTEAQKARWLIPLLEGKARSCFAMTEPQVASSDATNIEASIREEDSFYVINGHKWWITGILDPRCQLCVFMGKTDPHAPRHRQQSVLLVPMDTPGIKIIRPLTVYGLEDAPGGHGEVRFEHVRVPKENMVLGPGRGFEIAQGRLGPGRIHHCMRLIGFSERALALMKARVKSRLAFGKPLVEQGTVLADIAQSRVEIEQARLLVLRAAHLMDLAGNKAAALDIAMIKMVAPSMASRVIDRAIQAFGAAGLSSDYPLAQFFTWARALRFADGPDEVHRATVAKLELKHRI
# [9] = molecular target: Dual specificity tyrosine-phosphorylation-regulated kinase 1A (Homo sapiens, UniProt Q13627)
# [10] = molecular target: Protein-tyrosine kinase 2-beta (Homo sapiens, UniProt Q14289)
# [11] = molecular target: Ephrin type-A receptor 7 (Homo sapiens, UniProt Q15375)
# Also: in the data inactive means no Kd found up to 30 µM.
# Casein kinase I isoform delta, sequence (P48730 whole entry, canonical isoform): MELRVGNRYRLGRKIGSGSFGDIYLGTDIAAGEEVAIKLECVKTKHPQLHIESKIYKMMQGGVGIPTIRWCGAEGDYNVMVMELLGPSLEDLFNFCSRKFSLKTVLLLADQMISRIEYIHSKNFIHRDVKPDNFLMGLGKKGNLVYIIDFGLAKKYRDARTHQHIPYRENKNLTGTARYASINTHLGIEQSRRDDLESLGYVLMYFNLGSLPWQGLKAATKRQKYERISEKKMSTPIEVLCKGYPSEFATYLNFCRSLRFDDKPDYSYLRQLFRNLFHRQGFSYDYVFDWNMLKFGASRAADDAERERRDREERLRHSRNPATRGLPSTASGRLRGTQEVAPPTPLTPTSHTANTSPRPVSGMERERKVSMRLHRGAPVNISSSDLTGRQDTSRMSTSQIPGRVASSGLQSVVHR
# Glycogen synthase kinase-3 alpha, sequence (P49840 whole entry): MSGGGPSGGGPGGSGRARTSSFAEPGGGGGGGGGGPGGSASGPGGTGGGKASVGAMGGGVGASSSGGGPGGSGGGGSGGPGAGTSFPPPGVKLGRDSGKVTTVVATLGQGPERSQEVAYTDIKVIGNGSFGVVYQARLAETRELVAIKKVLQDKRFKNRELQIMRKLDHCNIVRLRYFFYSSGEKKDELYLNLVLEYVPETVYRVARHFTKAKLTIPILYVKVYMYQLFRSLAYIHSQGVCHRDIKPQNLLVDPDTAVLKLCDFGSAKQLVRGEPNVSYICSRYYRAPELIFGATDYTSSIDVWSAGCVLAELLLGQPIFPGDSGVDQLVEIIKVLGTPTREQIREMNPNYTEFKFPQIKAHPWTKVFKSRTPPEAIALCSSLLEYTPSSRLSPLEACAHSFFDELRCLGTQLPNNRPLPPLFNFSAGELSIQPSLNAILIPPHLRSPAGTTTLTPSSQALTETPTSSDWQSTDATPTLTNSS
# DNA topoisomerase 2-beta, sequence (Q02880 whole entry): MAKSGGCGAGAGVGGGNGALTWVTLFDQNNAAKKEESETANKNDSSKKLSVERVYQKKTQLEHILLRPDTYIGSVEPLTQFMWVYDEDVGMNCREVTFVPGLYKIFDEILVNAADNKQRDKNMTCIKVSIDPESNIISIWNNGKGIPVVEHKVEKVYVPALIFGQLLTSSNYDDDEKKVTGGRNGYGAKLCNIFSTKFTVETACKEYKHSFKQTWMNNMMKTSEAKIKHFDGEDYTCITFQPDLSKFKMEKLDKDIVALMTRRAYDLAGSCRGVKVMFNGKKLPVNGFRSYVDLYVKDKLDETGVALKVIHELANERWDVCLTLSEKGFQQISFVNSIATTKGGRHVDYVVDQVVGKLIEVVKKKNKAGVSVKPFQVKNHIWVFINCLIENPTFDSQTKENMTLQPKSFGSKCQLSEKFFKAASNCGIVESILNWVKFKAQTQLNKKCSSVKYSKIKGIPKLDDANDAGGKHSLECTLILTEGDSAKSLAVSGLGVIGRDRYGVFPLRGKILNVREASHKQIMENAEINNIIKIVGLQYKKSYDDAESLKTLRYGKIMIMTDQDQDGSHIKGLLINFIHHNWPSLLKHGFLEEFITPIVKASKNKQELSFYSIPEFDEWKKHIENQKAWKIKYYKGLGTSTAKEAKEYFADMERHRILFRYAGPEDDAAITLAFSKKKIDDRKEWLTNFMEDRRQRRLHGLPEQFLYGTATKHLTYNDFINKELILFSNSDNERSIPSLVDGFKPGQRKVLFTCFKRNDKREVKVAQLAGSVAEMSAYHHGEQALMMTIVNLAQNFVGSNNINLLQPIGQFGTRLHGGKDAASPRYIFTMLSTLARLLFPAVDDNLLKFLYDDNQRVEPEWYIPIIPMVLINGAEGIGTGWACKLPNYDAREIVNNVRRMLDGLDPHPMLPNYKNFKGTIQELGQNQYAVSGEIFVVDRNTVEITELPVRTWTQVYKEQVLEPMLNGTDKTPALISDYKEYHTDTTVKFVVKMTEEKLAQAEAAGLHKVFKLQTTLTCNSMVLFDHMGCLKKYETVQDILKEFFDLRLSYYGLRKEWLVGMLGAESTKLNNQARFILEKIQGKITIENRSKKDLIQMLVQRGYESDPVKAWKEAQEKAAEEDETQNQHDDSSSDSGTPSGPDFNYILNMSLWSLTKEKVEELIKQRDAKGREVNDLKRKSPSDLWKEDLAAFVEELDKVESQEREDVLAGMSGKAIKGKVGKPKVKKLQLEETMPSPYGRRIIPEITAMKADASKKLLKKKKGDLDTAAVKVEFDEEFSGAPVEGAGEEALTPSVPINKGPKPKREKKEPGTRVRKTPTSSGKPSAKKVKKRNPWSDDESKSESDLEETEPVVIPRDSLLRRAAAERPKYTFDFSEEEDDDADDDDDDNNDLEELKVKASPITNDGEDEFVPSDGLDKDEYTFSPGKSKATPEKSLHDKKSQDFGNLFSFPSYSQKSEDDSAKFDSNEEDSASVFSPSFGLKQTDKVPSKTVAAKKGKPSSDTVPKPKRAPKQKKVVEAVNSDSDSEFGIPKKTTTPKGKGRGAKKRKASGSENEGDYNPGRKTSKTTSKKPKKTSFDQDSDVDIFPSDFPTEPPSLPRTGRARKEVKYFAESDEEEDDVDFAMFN
# Ras-related protein Rab-6A, sequence (P20340 whole entry): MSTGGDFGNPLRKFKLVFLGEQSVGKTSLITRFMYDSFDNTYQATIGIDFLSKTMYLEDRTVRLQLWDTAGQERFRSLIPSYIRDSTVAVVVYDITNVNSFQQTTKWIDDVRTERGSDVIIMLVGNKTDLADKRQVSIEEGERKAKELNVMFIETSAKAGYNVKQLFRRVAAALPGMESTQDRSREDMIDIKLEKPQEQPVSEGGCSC
# Cyclin-dependent kinase 4, sequence (P11802 whole entry): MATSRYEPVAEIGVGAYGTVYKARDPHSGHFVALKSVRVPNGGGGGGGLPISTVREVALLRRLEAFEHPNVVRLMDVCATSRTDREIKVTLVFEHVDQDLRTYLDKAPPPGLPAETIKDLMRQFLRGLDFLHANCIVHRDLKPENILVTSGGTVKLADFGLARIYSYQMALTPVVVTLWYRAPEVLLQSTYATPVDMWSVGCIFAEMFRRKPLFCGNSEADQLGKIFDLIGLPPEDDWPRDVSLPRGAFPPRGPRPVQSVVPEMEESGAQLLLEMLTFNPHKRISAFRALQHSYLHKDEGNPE
# Ephrin type-A receptor 7, sequence (Q15375 whole entry): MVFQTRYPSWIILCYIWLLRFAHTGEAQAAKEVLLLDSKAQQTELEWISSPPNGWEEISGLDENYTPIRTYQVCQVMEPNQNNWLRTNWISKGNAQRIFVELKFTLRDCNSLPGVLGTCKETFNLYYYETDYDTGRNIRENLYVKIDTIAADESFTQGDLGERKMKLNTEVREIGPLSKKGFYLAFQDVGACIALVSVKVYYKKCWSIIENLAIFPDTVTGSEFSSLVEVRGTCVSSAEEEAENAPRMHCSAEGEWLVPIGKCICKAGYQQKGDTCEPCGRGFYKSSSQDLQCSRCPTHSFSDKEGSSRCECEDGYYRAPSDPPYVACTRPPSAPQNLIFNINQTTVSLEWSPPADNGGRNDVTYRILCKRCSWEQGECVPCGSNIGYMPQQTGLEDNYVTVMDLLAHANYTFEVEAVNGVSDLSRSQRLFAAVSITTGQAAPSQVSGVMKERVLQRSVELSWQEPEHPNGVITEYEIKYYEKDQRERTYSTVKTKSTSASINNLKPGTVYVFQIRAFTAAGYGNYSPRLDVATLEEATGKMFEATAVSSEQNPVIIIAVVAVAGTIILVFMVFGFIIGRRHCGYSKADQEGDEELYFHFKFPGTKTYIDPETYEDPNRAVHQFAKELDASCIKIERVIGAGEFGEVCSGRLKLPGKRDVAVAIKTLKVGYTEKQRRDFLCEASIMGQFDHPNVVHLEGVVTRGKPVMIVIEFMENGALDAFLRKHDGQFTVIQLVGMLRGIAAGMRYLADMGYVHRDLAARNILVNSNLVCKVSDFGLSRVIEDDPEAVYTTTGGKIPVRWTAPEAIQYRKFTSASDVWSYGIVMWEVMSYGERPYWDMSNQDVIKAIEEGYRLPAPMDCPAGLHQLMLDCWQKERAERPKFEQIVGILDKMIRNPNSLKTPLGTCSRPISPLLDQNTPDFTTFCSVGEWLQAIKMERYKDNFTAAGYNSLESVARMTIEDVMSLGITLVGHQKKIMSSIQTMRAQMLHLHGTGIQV
# Protein-tyrosine kinase 2-beta, sequence (Q14289 whole entry): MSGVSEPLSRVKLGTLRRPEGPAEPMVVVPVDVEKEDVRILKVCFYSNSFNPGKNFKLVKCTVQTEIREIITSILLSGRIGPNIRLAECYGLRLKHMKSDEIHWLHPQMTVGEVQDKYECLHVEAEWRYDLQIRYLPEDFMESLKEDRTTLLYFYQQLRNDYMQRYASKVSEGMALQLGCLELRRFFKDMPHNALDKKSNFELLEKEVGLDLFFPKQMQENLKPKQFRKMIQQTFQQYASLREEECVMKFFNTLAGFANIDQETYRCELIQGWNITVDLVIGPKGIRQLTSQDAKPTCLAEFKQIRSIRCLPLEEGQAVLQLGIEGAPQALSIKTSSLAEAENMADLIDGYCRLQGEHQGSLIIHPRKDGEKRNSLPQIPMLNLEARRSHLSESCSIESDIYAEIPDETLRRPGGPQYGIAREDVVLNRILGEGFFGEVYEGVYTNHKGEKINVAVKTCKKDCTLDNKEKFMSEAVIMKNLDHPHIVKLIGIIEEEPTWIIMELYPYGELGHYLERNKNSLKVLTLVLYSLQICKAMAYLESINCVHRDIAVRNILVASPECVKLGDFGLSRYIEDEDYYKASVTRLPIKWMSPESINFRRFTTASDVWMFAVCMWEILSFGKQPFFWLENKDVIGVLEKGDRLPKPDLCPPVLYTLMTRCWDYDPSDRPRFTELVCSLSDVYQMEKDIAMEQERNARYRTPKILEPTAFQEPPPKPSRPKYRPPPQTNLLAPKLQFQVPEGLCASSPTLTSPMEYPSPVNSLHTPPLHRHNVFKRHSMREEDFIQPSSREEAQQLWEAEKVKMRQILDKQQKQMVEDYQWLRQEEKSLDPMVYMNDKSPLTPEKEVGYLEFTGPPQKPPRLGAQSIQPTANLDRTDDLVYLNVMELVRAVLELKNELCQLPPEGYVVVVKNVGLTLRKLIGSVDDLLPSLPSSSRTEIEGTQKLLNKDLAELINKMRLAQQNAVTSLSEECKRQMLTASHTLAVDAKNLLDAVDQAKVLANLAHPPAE
Compound,Kd [1],Kd [2],Kd [3],Kd [4],Kd [5],Kd [6],Kd [7],Kd [8],Kd [9],Kd [10],Kd [11]
O=C(NC[C@H](O)CO)c1ccncc1Nc1ccc(I)cc1F [PIMASERTIB],> 30 µM (inactive),> 30 µM (inactive),> 30 µM (inactive),> 30 µM (inactive),> 30 µM (inactive),> 30 µM (inactive),> 30 µM (inactive),> 30 µM (inactive),> 30 µM (inactive),> 30 µM (inactive),
O=C(NOC[C@H](O)CO)c1ccc(F)c(F)c1Nc1ccc(I)cc1F [MIRDAMETINIB],> 30 µM (inactive),> 30 µM (inactive),> 30 µM (inactive),> 30 µM (inactive),> 30 µM (inactive),> 30 µM (inactive),> 30 µM (inactive),> 30 µM (inactive),> 30 µM (inactive),> 30 µM (inactive),
COc1ccc(-c2ccc3ncc4c(c3c2)n(-c2ccc(N3CCNCC3)c(C(F)(F)F)c2)c(=O)n4C)cn1 [BGT-226 FREE BASE],> 30 µM (inactive),3.4 µM (active),> 30 µM (inactive),> 30 µM (inactive),> 30 µM (inactive),> 30 µM (inactive),> 30 µM (inactive),> 30 µM (inactive),0.922 µM (active),> 30 µM (inactive),
N#CCNC(=O)c1ccc(-c2ccnc(Nc3ccc(N4CCOCC4)cc3)n2)cc1 [MOMELOTINIB],> 30 µM (inactive),> 30 µM (inactive),> 30 µM (inactive),> 30 µM (inactive),> 30 µM (inactive),> 30 µM (inactive),> 30 µM (inactive),> 30 µM (inactive),> 30 µM (inactive),,> 30 µM (inactive)
C[C@@H]1COC(Nc2ccc3ncnc(Nc4ccc(OCc5nccs5)c(Cl)c4)c3c2)=N1 [VARLITINIB],> 30 µM (inactive),> 30 µM (inactive),> 30 µM (inactive),> 30 µM (inactive),> 30 µM (inactive),> 30 µM (inactive),> 30 µM (inactive),,> 30 µM (inactive),> 30 µM (inactive),> 30 µM (inactive)
O=c1[nH]c([C@@H]2CCCN2)nc2c1oc1ccc(Cl)cc12,> 30 µM (inactive),> 30 µM (inactive),,> 30 µM (inactive),> 30 µM (inactive),> 30 µM (inactive),> 30 µM (inactive),> 30 µM (inactive),0.04 µM,> 30 µM (inactive),> 30 µM (inactive)
CC(C)CC(=O)Nc1[nH]nc2c1CN(C(=O)C1CCN(C)CC1)C2(C)C [PHA-793887],> 30 µM (inactive),0.029 µM (active),> 30 µM (inactive),> 30 µM (inactive),> 30 µM (inactive),> 30 µM (inactive),> 30 µM (inactive),> 30 µM (inactive),> 30 µM (inactive),> 30 µM (inactive),
C=CCn1c(=O)c2cnc(Nc3ccc(N4CCN(C)CC4)cc3)nc2n1-c1cccc(C(C)(C)O)n1 [ADAVOSERTIB],> 30 µM (inactive),,> 30 µM (inactive),> 30 µM (inactive),> 30 µM (inactive),> 30 µM (inactive),> 30 µM (inactive),> 30 µM (inactive),> 30 µM (inactive),> 30 µM (inactive),> 30 µM (inactive)
O=S(=O)(c1cccc2cnccc12)N1CCCNCC1 [FASUDIL],,,> 30 µM (inactive),> 30 µM (inactive),> 30 µM (inactive),> 30 µM (inactive),> 30 µM (inactive),> 30 µM (inactive),> 30 µM (inactive),> 30 µM (inactive),> 30 µM (inactive)
C=CCN(/C=C1/C(=O)O[C@H](COC)[C@@]2(C)C1=C(O)C(=O)C1=C2[C@H](OC(C)=O)C[C@]2(C)C(=O)CC[C@@H]12)CC=C [SONOLISIB],> 30 µM (inactive),> 30 µM (inactive),,> 30 µM (inactive),> 30 µM (inactive),> 30 µM (inactive),> 30 µM (inactive),> 30 µM (inactive),> 30 µM (inactive),> 30 µM (inactive),
COc1cc2ncnc(Nc3ccc(O)cc3)c2cc1OC [WHI-P131],> 30 µM (inactive),> 30 µM (inactive),> 30 µM (inactive),> 30 µM (inactive),> 30 µM (inactive),> 30 µM (inactive),> 30 µM (inactive),,> 30 µM (inactive),> 30 µM (inactive),> 30 µM (inactive)

# Other lines, results leading:
Kd [1],Kd [2],Kd [3],Kd [4],Kd [5],Kd [6],Kd [7],Kd [8],Kd [9],Kd [10],Kd [11],Compound
> 30 µM (inactive),> 30 µM (inactive),> 30 µM (inactive),> 30 µM (inactive),> 30 µM (inactive),> 30 µM (inactive),> 30 µM (inactive),,> 30 µM (inactive),> 30 µM (inactive),> 30 µM (inactive),CC(C)(O)CC(=O)NCCn1ccc2ncnc(Nc3ccc(Oc4cccc(C(F)(F)F)c4)c(Cl)c3)c21 [TAK-285]
> 30 µM (inactive),> 30 µM (inactive),,> 30 µM (inactive),> 30 µM (inactive),> 30 µM (inactive),> 30 µM (inactive),> 30 µM (inactive),3.29 µM (active),> 30 µM (inactive),> 30 µM (inactive),COc1cccc(Nc2ncnn3ccc(CN4CC[C@@H](N)[C@H](O)C4)c23)c1 [BMS-690514]
0.287 µM (active),> 30 µM (inactive),> 30 µM (inactive),> 30 µM (inactive),> 30 µM (inactive),> 30 µM (inactive),> 30 µM (inactive),> 30 µM (inactive),,> 30 µM (inactive),> 30 µM (inactive),c1cc(OCCN2CCCCC2)cc(-c2n[nH]c3ccc(-c4nc[nH]n4)cc23)c1 [CC-401]
